# According to patent US4916149A, “Diuretic and saluretic 4-chloro-3-sulfamoylbenzoic acid hydrazides” (Chinoin Gyogyszer es Vegyeszeti Termekek Gyara Rt., priority 1987, dated 1990):
# Values joined by “and” are separate entries in the source; they are usually repeats but may differ in a detail not shown here. Equal entries are not always repeated. Where two headings read alike, the source gives them in different places.
# What was measured:
# [1] = Saluretic effect in dogs (urine volume, Na and K, 0-7 and 7-24 hours); type: in vivo, perineotomized female dogs
# Method: The compound described in Example 1 was studied also on perineotomized female dogs. […] For adaptation, starting from the 4th week following the operation, the urinary bladder of the animals was evacuated by a catheter or treated with saline via a gastric tube. During the experiment, the dogs were kept on a standard food and they received water ad libitum. On the days of the experiements, the dogs were fasted and received only 20 ml/kg of water. Sodium in an 7.7 mmol/kg and potassium in an amount of 6.02 mmol/kg were introduced with the food.
# On the day of the experiment, the bladder of the animals was evacuated and a blood sample was taken from the leg vein, then a solution of the diuretic and solvent to the controls, respectively were administered in a dose of 10 ml/kg via a gastric tube. The animals were placed separately in metabolic cages. After 7 and 24 hours, respectively the bladder of the animals was catheterized and the urine was collected by washing the metabolic cage. After 24 hours following the catheterization, a blood sample was taken again.
# In addition to the discharged volume, the Na^+ and K^+ content of the urine as well as the glucose and cholesterol level of the serum were determined.
# [2] = Saluretic/diuretic screening in rats (method of Lipschitz as modified by Kagawa and Kahn); type: in vivo, male LATI CFY rats; settings: for response vs control in vivo at 5 mg/kg: Rattus norvegicus; for response vs control in vivo at 5 mg/kg / Na/K ratio of the urine discharged: single oral dose (5 mg/kg oral screen dose), 24 hours; for Na/K ratio of the urine discharged: control 3.0
# Method: The compounds of the present invention were compared with Dihydrochlorothiazide and Furosemide in rats by administration of a 5 mg/kg oral screen dose.
# The screening tests were carried out on male LATI CFY rats having an average body-weight of 240 g. The animals were kept on standard rat food and starved for 16 hours before the experiment but they received water ad libitum. For evaluation of the diuretic effect, the method of Lipschitz as modified by Kagawa and Kahn [Arch. Int. Pharmacodyn. 137, 241 (1962)] was used.
# Effect of a single oral dose of the compounds according to the invention on water, sodium and potassium diuresis during 24 hours as percentage of the simultaneously measured control values as well as their effect on the Na/K ratio of the urine discharged
# [3] = Antihypertensive activity in spontaneously hypertensive (SH) rats, systolic blood pressure; type: in vivo, spontaneously hypertensive (SH) male Okamoto rats
# Method: […] A hypotension of 21.1% was induced by the compound of Example 1 by 12 hours after administration.
# These investigations were carried but in spontaneously hypertensive (SH) male Okamoto rats. At least one week before starting the experiment, the animals had individually been maintained in cages and received water and semisynthetic rat food ad libitum. In the same time of each day, the blood pressure of each animal was measured and gastric tubing was carried out while immobilizing the animals. Animals with a blood pressure below 170 Hgmm were excluded from the experiment. Based on the daily determined blood pressure values, the animals were divided to experimental groups having a nearly equal average blood pressure and deviation.
# At the beginning of the experiment, the animals were given 0.2 ml/100 g of a solution containing the test compound, and 1 ml/100 g of Furosemide solution, respectively. Animal groups treated with physiological saline solution and solvent, respectively were also investigated in each experiment.
# Before measuring the blood pressure, the animals were put into a light-insulated sound-proof chamber then immobilized. An inflatable rubber cuff was placed on their tail root (onto the same site in each case) which was connected with a manometer.
# The material and diameter of the tail cuff was standardized. The measurement was carried out according to the Riva-Rocci principle. For determining the systolic blood pressure, the palpitation method was used. The heart rate was evaluated by a piezoelektric crystal put onto the rubber ring. The blood pressure measurement of each animal was started by 2 minutes following the immobilization, repeated in every 30 seconds and usually, the values several times repeatedly observed were accepted.
# Effect of a single oral dose of the compound of Example 1 or Furosemide, respectively on the systolic blood pressure of SH rats
# [4] = Glucose tolerance, serum uric acid and cholesterol; type: in vivo
# [5] = read-out: K (potassium) diuresis, percentage of the simultaneously measured control values
# [6] = read-out: Na (sodium) diuresis, percentage of the simultaneously measured control values
# [7] = read-out: Water diuresis, percentage of the simultaneously measured control values
# [8] = single oral dose 100 mg/kg, before treatment 201 mmHg
# [9] = single oral dose 5 mg/kg, before treatment 216 mmHg
SMILES,"response vs control in vivo at 5 mg/kg [2, 5]","response vs control in vivo at 5 mg/kg [2, 6]","response vs control in vivo at 5 mg/kg [2, 7]",Na/K ratio of the urine discharged [2],other results
"NS(=O)(=O)c1cc(C(=O)O)c(NCc2ccco2)cc1Cl [Furosemide, reference compound]",105%,106%,107%,2.7,"diuretic effect in the 7 to 24 hours' period ([1]; 7 to 24 hours' period): low; Hypotension 6 hours following treatment, % ([3]; single oral dose 100 mg/kg): 25.3%; Hypotension 6 hours following treatment [3, 8]: 51 mmHg; Hypotension 12 hours following treatment, % ([3]; single oral dose 100 mg/kg): 19.4%; Hypotension 12 hours following treatment [3, 8]: 39 mmHg; Hypotension 24 hours following treatment, % ([3]; single oral dose 100 mg/kg): 1.5%; Hypotension 24 hours following treatment [3, 8]: 3 mmHg"
"NS(=O)(=O)c1cc(C(=O)Nn2cnc3cc(C(=O)O)ccc32)ccc1Cl [Example 19, 1-(4'-chloro-3'-sulfamoylbenzoyl)amino-5-carboxybenzimidazole]",120%,121%,117%,3.1,
"Cc1nc2cc(C(F)(F)F)ccc2n1NC(=O)c1ccc(Cl)c(S(N)(=O)=O)c1 [Example 27, 1-(4'-chloro-3'-sulfamoylbenzoyl)amino-2-methyl-5-trifluoromethylbenzimidazole]",85%,94%,95%,4.3,
"CSc1nc2cc(C(=O)O)ccc2n1NC(=O)c1ccc(Cl)c(S(N)(=O)=O)c1 [Example 9, 1-(4'-chloro-3'-sulfamoylbenzoyl)-amino-5-carboxy-2-methylthiobenzimidazole]",95%,105%,99%,3.4,
"NS(=O)(=O)c1cc(C(=O)Nn2cnc3cc(C(F)(F)F)ccc32)ccc1Cl [Example 26, 1-(4'-chloro-3'-sulfamoylbenzoyl)amino-5-trifluoromethylbenzimidazole]",106%,108%,107%,4.0,
"NS(=O)(=O)c1cc(C(=O)Nn2c(-c3ccccc3)nc3cc(C(F)(F)F)ccc32)ccc1Cl [Example 29, 1-(4'-chloro-3'-sulfamoylbenzoyl)amino-2-phenyl-5-trifluoromethylbenzimidazole]",105%,101%,97%,2.9,
"CSc1nc2cc(C(F)(F)F)ccc2n1NC(=O)c1ccc(Cl)c(S(N)(=O)=O)c1 [Example 30, 1-(4'-chloro-3'-sulfamoylbenzoyl)-amino-2-methylthio-5-trifluoromethylbenzimidazole]",108%,106%,114%,3.0,
"NS(=O)(=O)c1cc(C(=O)Nn2c(=O)[nH]c3cc(C(=O)O)ccc32)ccc1Cl [Example 7, 1-(4'-chloro-3'-sulfamoylbenzoyl)-amino-5-carboxybenzimidazolone]",110%,133%,129%,3.7,
"NS(=O)(=O)c1cc(C(=O)Nn2c(=S)[nH]c3cc(C(=O)O)ccc32)ccc1Cl.O [Example 1, 1-(4'-chloro-3'-sulfamoylbenzoyl)amino-5-carboxybenzimidazole-2-thione monohydrate]",122%,152%,148%,4.6,"deterioration of the glucose tolerance ([4]; even in a high dose (30 mg/kg)): does not induce any deterioration; effect on the cholesterol level of the serum ([4]; in vivo): no significant effect; effect on the uric acid concentration of the serum ([4]; in vivo): no significant effect; discharged urine volume as well as ion diuresis ([2]; 5 mg/kg oral, compared with Dihydrochlorothiazide and Furosemide): particularly advantageous; Na/K index ([2]; 5 mg/kg oral, result in words): highly preferable; Hypotension 6 hours following treatment, % ([3]; single oral dose 5 mg/kg): 14.3%; Hypotension 6 hours following treatment [3, 9]: 31 mmHg; Hypotension 12 hours following treatment [3, 9]: 45 mmHg; Hypotension 12 hours following treatment, % ([3]; single oral dose 5 mg/kg, monohydrate, 5 mg/kg): 21.1% and 20.1%; Hypotension 24 hours following treatment, % ([3]; single oral dose 5 mg/kg): 13.8%; Hypotension 24 hours following treatment [3, 9]: 30 mmHg"
"NS(=O)(=O)c1cc(C(=O)Nn2cnc3ccccc32)ccc1Cl [Example 22, 1-(4'-chloro-3'-sulfamoylbenzoyl)-aminobenzimidazole]",103%,99%,107%,3.7,
"Cc1nc2ccccc2n1NC(=O)c1ccc(Cl)c(S(N)(=O)=O)c1 [Example 23, 1-(4'-chloro-3'-sulfamoylbenzoyl)amino-2-methylbenzimidazole]",102%,105%,98%,4.0,
"Cc1nc2cc(C(=O)O)ccc2n1NC(=O)c1ccc(Cl)c(S(N)(=O)=O)c1 [Example 16, 1-(4'-chloro-3'-sulfamoylbenzoyl)amino-5-carboxy-2-methylbenzimidazole]",109%,117%,111%,3.3,
"COC(=O)c1ccc2c(c1)nc(C)n2NC(=O)c1ccc(Cl)c(S(N)(=O)=O)c1 [Example 32, 1-(4'-chloro-3'-sulfamoylbenzoyl)amino-5-methoxycarbonyl-2-methylbenzimidazole]",115%,121%,117%,3.2,
"NS(=O)(=O)c1ccc2c(c1)[nH]c(=S)n2NC(=O)c1ccc(Cl)c(S(N)(=O)=O)c1 [Example 24, 1-(4'-chloro-3'-sulfamoylbenzoyl)amino-5-sulfamoylbenzimidazole-2-thione]",104%,104%,108%,3.9,
"NS(=O)(=O)c1cc2c(cc1Cl)NCNS2(=O)=O [Hypothiazide, reference compound]",114%,129%,124%,3.5,diuretic effect in 7 hours' period ([1]; 7 hours' period after administration): low
